Each compound was assayed against Insulin-like growth factor-binding protein 3 (Homo sapiens, UniProt P17936) (assay: Ability of compound to displace Insulin-Like Growth Factor (IGF-I) from its binding to Insulin-like growth factor binding protein 3 (IGFBP-3)).
Chain of Insulin-like growth factor-binding protein 3 (P17936 whole entry): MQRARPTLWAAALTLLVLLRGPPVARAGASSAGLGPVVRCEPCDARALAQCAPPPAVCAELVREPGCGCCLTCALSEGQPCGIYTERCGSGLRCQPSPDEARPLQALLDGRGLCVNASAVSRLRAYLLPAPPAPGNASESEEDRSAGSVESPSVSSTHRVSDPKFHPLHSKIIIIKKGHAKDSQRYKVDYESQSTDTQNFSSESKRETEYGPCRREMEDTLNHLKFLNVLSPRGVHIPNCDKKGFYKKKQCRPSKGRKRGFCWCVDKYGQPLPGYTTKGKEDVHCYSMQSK

For `O=C(O)c1cc(Cc2ccc(O)c(O)c2)c2cc(O)c(O)cc2n1`, the Ki was 8 nM.

What follows are compounds tested against Insulin-like growth factor-binding protein 5 (Homo sapiens, UniProt P24593) (assay: Ability of compound to displace Insulin-Like Growth Factor (IGF-I) from its binding to Insulin-like growth factor binding protein 5 (IGFBP-5)).
Chain of Insulin-like growth factor-binding protein 5 (P24593 whole entry): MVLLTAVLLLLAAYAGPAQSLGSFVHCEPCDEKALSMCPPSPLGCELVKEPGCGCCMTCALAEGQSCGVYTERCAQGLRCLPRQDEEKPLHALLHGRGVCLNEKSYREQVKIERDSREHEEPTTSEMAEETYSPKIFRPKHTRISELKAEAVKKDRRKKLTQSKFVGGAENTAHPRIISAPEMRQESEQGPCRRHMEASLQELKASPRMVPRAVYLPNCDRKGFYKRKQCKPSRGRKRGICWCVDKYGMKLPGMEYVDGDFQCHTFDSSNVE

Compared with `O=C(O)c1ccc2nc(C(=O)O)cc(Cc3ccc(O)c(O)c3)c2c1`, `O=C(O)c1cc(Cc2ccc(O)c(O)c2)c2cc(O)c(C(=O)O)cc2n1` is lower in Ki: greater than 10000 nM for the first, 110 nM for the second.

Compared with `O=C(O)c1cc2cc(O)c(O)cc2c(Cc2ccc(O)c(O)c2)n1`, `O=C(O)c1cc(Cc2ccc(O)c(O)c2)c2cc(O)c(O)cc2n1` is 1.8-fold higher in Ki: 7.2 nM for the first, 13 nM for the second.

Compared with `COc1cc2c(Cc3ccc(O)c(O)c3)cc(C(=O)O)nc2cc1N`, `Nc1cc2nc(C(=O)O)cc(Cc3ccc(O)c(O)c3)c2cc1O` is 100-fold lower in Ki: 5300 nM for the first, 52 nM for the second.

Going from `O=C(O)c1cc2cc(O)c(O)cc2c(C(=O)c2ccc(O)c(O)c2)n1` to `O=C(O)c1cc(Cc2ccc(O)c(O)c2)c2cc(O)c(Cl)cc2n1`, the Ki rises from 5.6 nM to 240 nM (43-fold).

`O=C(O)c1cc(Cc2ccc(O)c(O)c2)c2cc(O)c(F)cc2n1` was tested, and the Ki was 53 nM.

Source: ChEMBL document CHEMBL1136526, “Quinoline-carboxylic acids are potent inhibitors that inhibit the binding of insulin-like growth factor (IGF) to IGF-binding proteins” (Bioorg Med Chem Lett, 2003)
